The results in this text go back to patent publication US8124582B2, “Treatment of diabetes” (FibroGen, Inc., priority 2002, dated 2012).

Molecules are shown by their SMILES.

Assay [1] has as its system HIF-1α. Nature of the assay: HIF-1α stabilization in cells, nuclear fraction Western blot. As to conditions: various cell types, overnight incubation, 20% O2; FIG. 12A. The format is cell-based, Human. The protocol: Stabilization of HIFα using compounds and methods of the present invention was examined as follows. Human cells derived from adenovirus-transformed fetal kidney epithelium (293A), cervical epithelial adenocarcinoma (HeLa), hepatocellular carcinoma (Hep3B), squamous carcinoma (SSC-25), and lung fibroblast (HLF) (see, e.g., American Type Culture Collection, Manassas Va.; and Qbiogene, Carlsbad Calif.) were separately seeded into 100 mm culture dishes and grown at 37° C., 20% O2, 10% CO2 in media as follows: HeLa cells in Dulbecco's Modification of Eagle's Medium (DMEM), 2% fetal bovine serum (FBS); HLF cells in DMEM, 10%FBS; 293A cells in DMEM, 5%FBS; and Hep3B cells in Minimal Essential Medium (MEM), Earle's BSS (Mediatech Inc., Herndon Va.), 2 mM L-glutamine, 0.1 mM non-essential amino acids, 1 mM sodium pyruvate, 10% FBS. When cell layers reached confluence, the media was replaced with OPTI-MEM media (Invitrogen Life Technologies, Carlsbad Calif.) and cell layers were incubated for approximately 24 hours in 20% O2, 10% CO2 at 37° C. Compound of the invention (one of compounds B, F, G, and H) or DMSO (0.5 to 1%) was then added to existing medium, and incubation was continued overnight.
Following incubation, the media was removed, centrifuged, and stored for analysis. […]

Assay [2] concerns GluT-1. Nature of the assay: GluT-1 protein levels in SCC-25 cells (Western blot). As to conditions: 10 and 25 μM, 16 hours, FIG. 1B. The class given is cell-based, Human. The protocol:
Human SSC-25 (squamous cell carcinoma) or rat H9c2 (ventricular cardiomyocyte) cells were grown to confluence in 100 mm culture dishes at 37° C., 10% CO2 in DMEM with 10% fetal calf serum. Cells were then washed twice with PBS and incubated with vehicle control, compound D (10 and 25 μM), or compound C (5, 10, and 20 μM) for 16 hours. Plates were placed on ice, culture supernatant was removed, and lysis buffer-1 (LB-1: 10 mM Tris pH 7.4, 1 mM EDTA, 150 mM sodium chloride, 0.5% IGEPAL) was added. Cell lysates were harvested by scraping, incubated for 15 minutes on ice, and then centrifuged at 3000×g for 5 minutes at 4° C. The supernatant, which represents the cytosolic fraction, was collected and cytosolic proteins were separated under reducing conditions using SDS-polyacrylamide gel electrophoresis (SDS-PAGE) with equal amounts of protein loaded per lane.
SDS-PAGE was conducted at 150 V for 2 hours, after which the proteins were transferred to a PVDF membrane at 400 mA for 1.5 hours at 4° C. The membrane was incubated in blocking buffer for 2 hours or overnight and washed once with T-TBS prior to addition of anti-GluT-1 antibody (Alpha Diagnostics) diluted to working concentration in blocking buffer. […]

In assay [3] the test system is inducible nitric oxide synthase (iNOS). Nature of the assay: In vivo iNOS mRNA expression (quantitative PCR). The settings on record: mice, oral gavage; within 8 hours following treatment, then returned to control levels; normalized to 18S rRNA; FIG. 10A. Further details: species or system Swiss Webster male mice. The protocol:
To determine gene induction patterns over time, twenty four Swiss Webster male mice (30-32 g) were obtained from Simonsen, Inc. and treated by oral gavage with a 4 ml/kg volume of either 0.5% carboxymethyl cellulose (CMC; Sigma-Aldrich, St. Louis Mo.) (0 mg/kg/day) or […] compound B (25 mg/ml in 0.5% CMC) (100 mg/kg). At 4, 8, 16, 24, 48, or 72 hours after the final dose, animals were anesthetized with isoflurane. The mice were then sacrificed and tissue samples of kidney, liver, brain, lung, and heart were isolated and stored in RNALATER solution (Ambion) at −80° C.
To investigate the dose response of compounds of the present invention, twelve Swiss Webster male mice (30-32 g) (obtained from Simonsen, Inc., Gilroy Calif.) were treated by oral gavage once per day for 4 days with a 4 ml/kg volume of either 0.5% carboxymethyl cellulose (CMC; Sigma-Aldrich, St. Louis Mo.), compound D (25 mg/ml in 0.5% CMC) (100 mg/kg/day), or compound B (7.5 and 25 mg/ml in 0.5% CMC) (30 and 100 mg/kg/day, respectively). Four hours after the final dose, animals were anesthetized, sacrificed, and approximately 150 mg of liver and each kidney were isolated and stored in RNALATER solution (Ambion) at −20° C.
Hypertension is a risk factor for diabetes and disorders and diseases associated with diabetes. The effects of compounds of the present invention on regulation of blood pressure were examined as follows. Animals were treated with compound B or compound D and RNA samples were prepared as described above in Example 4. […] Analysis of the relative level of gene expression was performed by quantitative PCR using a FASTSTART DNA MASTER SYBR GREEN I kit (Roche) and gene-specific primers, using a LIGHTCYCLER system (Roche), according to manufacturer's instructions. […]
The relative level of 18S ribosomal RNA gene expression was measured as a control. Quantitative PCR was performed using a QUANTITECT SYBR GREEN PCR kit (Qiagen) and gene-specific primers, using a LIGHTCYCLER system (Roche), according to manufacturer's instructions. […]

Regarding `O=C(O)c1c[nH]c2c(ccc3cccnc32)c1=O` [compound D, 4-Oxo-1,4-dihydro-[1,10]phenanthroline-3-carboxylic acid], the “HIFα stabilization (Western blot)” value in assay [1] is “stabilized HIFα in a dose-dependent manner”. For the same compound, the “protein levels of GluT-1” value in assay [2] is “increased”. Moreover, the “expression of the gene encoding iNOS” value in assay [3] is listed as “increased”.
